Columns and labels:
[1] = system: full-thickness, excisional 1 cm by 1 cm wounds on the dorsa of C57BL/6 mice; assay: Histology of harvested wound tissue after photochemical treatment; type: in vivo; conditions: days 7, 21 and 42 post wound creation; Rose Bengal solution + KTP laser 532 nm, 60 J/cm2
Procedure: By way of example, the above-described system 20 and method 10 were studied in comparison to untreated control wounds. The study was carried out according to the steps illustrated in FIG. 3. Generally, FIG. 3 illustrates a wound creation step 30, an activating agent delivery step 32, an illumination step 34, and a post-treatment step 36. More specifically, at step 30, full-thickness, excisional 1 cm by 1 cm wounds 38 were created on the dorsa of C57BL/6 mice 40 in both a control group of 16 mice and a test group of 16 mice. Additionally, dots 42 were tattooed on the skin around the wound perimeter in both the control and test groups (as shown in step 34) in order to monitor contracture over the course of wound healing. Following step 30, control group wounds were left alone to heal. With respect to the test group, at step 32, a Rose Bengal solution was painted onto wound beds 38 (e.g., as discussed above with respect to process block 12 of FIG. 1). At step 34, the wounds 38 were illuminated by an electromagnetic radiation source 26, in particular, a KTP laser having a 532-nanometer wavelength, with an energy output of 60 Joules per centimeter squared (e.g., as discussed above with respect to process block 14 of FIG. 1). […]
To compare the test and control groups, the area within each tattooed wound perimeter was serially measured over 6 weeks and percent contracture was calculated. […]

[2] = system: full-thickness, excisional 1 cm by 1 cm wounds on the dorsa of C57BL/6 mice; assay: Wound contracture after photochemical treatment (area within tattooed wound perimeter); type: in vivo
Procedure: By way of example, the above-described system 20 and method 10 were studied in comparison to untreated control wounds. The study was carried out according to the steps illustrated in FIG. 3. Generally, FIG. 3 illustrates a wound creation step 30, an activating agent delivery step 32, an illumination step 34, and a post-treatment step 36. More specifically, at step 30, full-thickness, excisional 1 cm by 1 cm wounds 38 were created on the dorsa of C57BL/6 mice 40 in both a control group of 16 mice and a test group of 16 mice. Additionally, dots 42 were tattooed on the skin around the wound perimeter in both the control and test groups (as shown in step 34) in order to monitor contracture over the course of wound healing. Following step 30, control group wounds were left alone to heal. With respect to the test group, at step 32, a Rose Bengal solution was painted onto wound beds 38 (e.g., as discussed above with respect to process block 12 of FIG. 1). At step 34, the wounds 38 were illuminated by an electromagnetic radiation source 26, in particular, a KTP laser having a 532-nanometer wavelength, with an energy output of 60 Joules per centimeter squared (e.g., as discussed above with respect to process block 14 of FIG. 1). Steps 32 and 34 were conducted immediately after wound creation at step 30. Step 36 illustrates the immediate result of wound treatment, that is, the photobleaching of Rose Bengal dye.
To compare the test and control groups, the area within each tattooed wound perimeter was serially measured over 6 weeks and percent contracture was calculated. Additionally, at 7, 14, 21, and 42 days, mice were euthanized and tissue was harvested for histology.

O=C([O-])c1c(Cl)c(Cl)c(Cl)c(Cl)c1-c1c2cc(I)c(=O)c(I)c-2oc2c(I)c([O-])c(I)cc12.[Na+].[Na+] [Rose Bengal]
histological review of wound tissue compared to control group tissue [1]: increased ingrowth and development of dermal cells, increased vascularity, and appearance of skin appendages earlier and to a greater degree
more contracture in control wounds than in test group ([2]; by day 7): ~20%
percent contracture ([2]; day 7, Rose Bengal solution painted on wound bed, KTP laser 532 nm, 60 J/cm2, immediately after wound creation, control 80.3±8.5%, p=0.014): 67.1±17.1%
wounds contracted to (percentage of initial area of skin around wound perimeter) ([2]; day 42, Rose Bengal solution + KTP laser 532 nm, 60 J/cm2, control 13.6±5.6%, p=0.003): 35.2±2.9%
fold difference in remaining area, test group versus control group ([2]; day 42, p=0.003): 1.59 fold
